Molecules are shown by their SMILES. Active and inactive are the calls of the source. The calls are words filed in the database; no cut-off is given here.

Experiment [1] has as its target T1, Cholinesterase (Homo sapiens, UniProt P06276). As to the kind of experiment: Inhibition of butyrylcholinesterase (unknown origin) using butyrylthiocholine chloride as substrate incubated for 15 min prior to substrate addition measured for 15 min by spectrophotometric analysis.
Experiment [2] is filed under the species Homo sapiens. As to the kind of experiment: Inhibition of alpha-chymotrypsin (unknown origin) using N-succinyl-phenylalanine-p-nitroanilide as substrate at 500 uM incubated for 25 min prior to substrate by spectrophotometric analysis.
Experiment [3] has as its target Urease (Canavalia ensiformis) (UniProt P07374). As to the kind of experiment: Inhibition of Canavalia ensiformis (jack bean) urease using urea as substrate at 500 uM after 15 min by indophenol-based spectrophotometric analysis.
Experiment [4] addresses T2, Beta-glucuronidase (Homo sapiens) (UniProt P08236).
T2 sequence (whole entry): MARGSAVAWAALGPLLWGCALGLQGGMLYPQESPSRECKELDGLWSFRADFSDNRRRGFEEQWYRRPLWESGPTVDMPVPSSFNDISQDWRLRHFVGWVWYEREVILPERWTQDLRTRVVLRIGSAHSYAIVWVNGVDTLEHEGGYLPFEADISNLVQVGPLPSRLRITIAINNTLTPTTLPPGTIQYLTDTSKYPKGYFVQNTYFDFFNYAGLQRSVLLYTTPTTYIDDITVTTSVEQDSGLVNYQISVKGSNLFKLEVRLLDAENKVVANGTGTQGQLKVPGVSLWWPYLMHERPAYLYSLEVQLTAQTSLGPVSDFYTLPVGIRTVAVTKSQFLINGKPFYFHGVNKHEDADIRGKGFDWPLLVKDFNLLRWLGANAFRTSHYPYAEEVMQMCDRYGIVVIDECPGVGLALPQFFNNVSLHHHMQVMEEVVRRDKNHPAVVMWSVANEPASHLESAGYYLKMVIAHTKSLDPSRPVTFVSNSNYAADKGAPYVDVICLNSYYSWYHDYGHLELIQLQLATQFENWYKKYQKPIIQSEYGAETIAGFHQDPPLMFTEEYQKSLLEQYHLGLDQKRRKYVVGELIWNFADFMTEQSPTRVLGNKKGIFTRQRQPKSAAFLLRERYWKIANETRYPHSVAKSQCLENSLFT
As to the kind of experiment: Inhibition of beta-glucuronidase (unknown origin) using p-nitrophenyl-beta-D-glucuronide as substrate at 500 uM incubated for 30 min prior to substrate addition by spectrophotometric analysis.

Experiment [5] has as its target Acetylcholinesterase (Homo sapiens) (UniProt P22303). Put plainly: Inhibition of acetylcholinesterase (unknown origin) using acetylthiocholine iodide as substrate at 500 uM incubated for 15 min prior to substrate addition measured for 15 min by spectrophotometric analysis.
Experiment [6] addresses T1, Cholinesterase. Put plainly: Inhibition of butyrylcholinesterase (unknown origin) using butyrylthiocholine chloride as substrate at 500 uM incubated for 15 min prior to substrate addition measured for 15 min by spectrophotometric analysis.
The target in experiment [7] is Urease (Canavalia ensiformis, UniProt P07374). As to the kind of experiment: Inhibition of Canavalia ensiformis (jack bean) urease using urea as substrate after 15 min by indophenol-based spectrophotometric analysis.
For experiment [8], the target named is T3, Beta-glucuronidase (Homo sapiens, UniProt P08236).
T3 sequence (P08236 whole entry): T2 sequence (whole entry)
Put plainly: Inhibition of beta-glucuronidase (unknown origin) using p-nitrophenyl-beta-D-glucuronide as substrate incubated for 30 min prior to substrate addition by spectrophotometric analysis.

T1 sequence (P06276 whole entry): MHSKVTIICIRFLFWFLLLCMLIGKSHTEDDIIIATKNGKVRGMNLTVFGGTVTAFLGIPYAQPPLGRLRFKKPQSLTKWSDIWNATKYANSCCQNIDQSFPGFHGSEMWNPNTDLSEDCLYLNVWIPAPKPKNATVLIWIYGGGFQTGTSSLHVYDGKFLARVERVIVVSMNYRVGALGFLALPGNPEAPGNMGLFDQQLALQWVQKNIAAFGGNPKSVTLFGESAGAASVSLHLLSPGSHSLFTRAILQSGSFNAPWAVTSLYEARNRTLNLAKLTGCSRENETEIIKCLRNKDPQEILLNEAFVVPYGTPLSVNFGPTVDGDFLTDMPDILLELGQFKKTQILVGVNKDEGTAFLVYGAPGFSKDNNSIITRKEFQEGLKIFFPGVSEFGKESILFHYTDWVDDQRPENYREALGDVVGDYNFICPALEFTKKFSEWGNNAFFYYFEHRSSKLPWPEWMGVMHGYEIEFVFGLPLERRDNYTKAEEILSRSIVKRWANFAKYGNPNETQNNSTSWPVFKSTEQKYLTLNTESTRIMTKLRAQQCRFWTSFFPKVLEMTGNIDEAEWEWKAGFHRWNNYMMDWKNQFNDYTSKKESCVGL
Chain of Acetylcholinesterase (Homo sapiens) (P22303 whole entry): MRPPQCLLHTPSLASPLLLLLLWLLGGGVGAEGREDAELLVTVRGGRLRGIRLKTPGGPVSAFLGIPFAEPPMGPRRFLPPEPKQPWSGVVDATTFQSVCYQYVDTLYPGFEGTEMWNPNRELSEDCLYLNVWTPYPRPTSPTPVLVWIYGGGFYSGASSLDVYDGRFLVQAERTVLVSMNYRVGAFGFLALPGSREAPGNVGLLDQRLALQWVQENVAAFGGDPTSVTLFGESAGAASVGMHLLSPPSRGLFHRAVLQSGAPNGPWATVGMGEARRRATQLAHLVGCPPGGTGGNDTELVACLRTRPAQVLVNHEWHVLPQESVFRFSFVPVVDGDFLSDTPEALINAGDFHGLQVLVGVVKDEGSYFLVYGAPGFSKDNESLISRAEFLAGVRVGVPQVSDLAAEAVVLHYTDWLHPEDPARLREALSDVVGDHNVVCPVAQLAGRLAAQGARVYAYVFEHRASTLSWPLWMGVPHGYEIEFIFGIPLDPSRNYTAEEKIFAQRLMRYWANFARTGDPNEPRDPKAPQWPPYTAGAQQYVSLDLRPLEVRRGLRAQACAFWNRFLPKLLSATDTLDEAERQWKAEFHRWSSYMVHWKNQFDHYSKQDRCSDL
Chain of Urease (P07374 whole entry): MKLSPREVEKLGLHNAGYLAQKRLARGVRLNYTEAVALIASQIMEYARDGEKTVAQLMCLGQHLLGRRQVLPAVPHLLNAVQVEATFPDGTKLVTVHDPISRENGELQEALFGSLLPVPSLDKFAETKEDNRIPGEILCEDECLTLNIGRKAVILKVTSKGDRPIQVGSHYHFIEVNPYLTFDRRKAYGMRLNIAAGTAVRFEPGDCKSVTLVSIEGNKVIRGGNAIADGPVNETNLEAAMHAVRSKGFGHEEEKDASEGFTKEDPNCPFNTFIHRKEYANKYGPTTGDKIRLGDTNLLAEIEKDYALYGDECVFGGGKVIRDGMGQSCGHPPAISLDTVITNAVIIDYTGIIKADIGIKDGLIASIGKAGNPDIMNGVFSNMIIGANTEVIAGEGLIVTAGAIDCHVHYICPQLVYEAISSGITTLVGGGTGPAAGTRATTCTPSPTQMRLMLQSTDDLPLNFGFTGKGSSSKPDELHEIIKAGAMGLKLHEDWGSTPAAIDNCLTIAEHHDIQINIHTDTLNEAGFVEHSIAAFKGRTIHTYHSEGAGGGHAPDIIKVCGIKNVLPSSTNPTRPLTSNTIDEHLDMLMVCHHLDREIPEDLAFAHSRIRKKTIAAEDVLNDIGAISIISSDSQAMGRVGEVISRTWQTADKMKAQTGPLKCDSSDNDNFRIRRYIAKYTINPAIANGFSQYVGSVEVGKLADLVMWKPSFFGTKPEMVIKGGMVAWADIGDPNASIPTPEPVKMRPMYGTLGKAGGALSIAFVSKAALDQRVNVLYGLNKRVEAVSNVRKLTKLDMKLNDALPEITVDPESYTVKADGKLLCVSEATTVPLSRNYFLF
Chain of Urease (Canavalia ensiformis) (P07374 whole entry, looked up): as the sequence (P07374 whole entry) above

For orientation: IC50 means the concentration that inhibits the measured activity by half. A lower IC50 goes with inhibition by little substance. The molecule `Cc1cc(CN(CCO)Cc2cc(C)n(C)n2)nn1C` returned an IC50 in experiment [1] of 68 µM. The inhibition entry in experiment [2], in experiment [3], in experiment [4] and in experiment [5] was “inactive” each time.

On to `Cc1cc(C)n(CN(Cn2nc(C)cc2C)C2CCCCC2)n1`, for which the inhibition entry in experiment [6], in experiment [2] and in experiment [5] was “inactive” throughout. Moreover, the IC50 in experiment [7] worked out at 43.5 µM; in experiment [8], 457 µM.

For `Cc1cc(C)n(CO)n1`, the inhibition result in experiment [6], in experiment [2], in experiment [4] and in experiment [5] was “inactive” in each case. For the same molecule, the IC50 in experiment [7] came out at 94.3 µM.

As to `Cc1cc(C)n(CN(CCO)Cn2nc(C)cc2C)n1`, the inhibition entry in experiment [6], in experiment [2], in experiment [4] and in experiment [5] was “inactive” in each case. The molecule also showed an IC50 in experiment [7] of 44.7 µM.
